Series [1] in a line: Solubility in phosphate buffer (0.16 M). Particulars: aqueous buffer, thermodynamic from solid. The format is physicochemical. As for the experimental part:
Excess amounts of each salt were added to the phosphate buffer (0.5 ml) individually. The mixtures were stirred and centrifuged at 6000 rpm for 6 min. The concentrations of each of the salts in their saturated solutions were analyzed by HPLC. The pH of the solutions was held constant throughout the experiment.

Series [2] in a line: In vitro skin permeation study, Franz-type diffusion cell. The format is in vitro ADME. To be noted: male, Wistar, rat, read-out: Kp x10^6 (permeability coefficient) (converted). The protocol: The in vitro skin permeation study was performed by using skin from the whole dorsal area of a male Wistar rat. […] For each salt and the parent drug, the cumulative amounts permeated through the skin were plotted against time. A steady-state flux (Jss) was obtained by dividing the slope of that graph by the surface area of the diffusion cell (4.906 cm^2).
All the reagents and solvents required for the syntheses were purified by general laboratory techniques before use. The purity of the compounds and completion of the reactions were monitored by thin layer chromatography (TLC) on silica gel plates (60 F254; Merck), visualized with ultraviolet light or iodine vapors. […] Melting points were determined using a Veego make silicon oil bath-type melting point apparatus and are uncorrected. The IR spectra were recorded using the KBr disc method in cm^−1 on a Bruker FTIR, Model 8300. The PMR spectra were recorded in CDCl3 on a Bruker 400 MHz spectrometer (chemical shifts in δ ppm, coupling constant J in Hz). λmax was determined on the Shimadzu 1800 UV spectrophotometer. The mass of the compounds was determined by LC-MS using electron impact as the source of ionization. DSC was performed on the Shimadzu DSC-60 model with the thermal analyser TA 60WS. The scanning electron microscope (SEM) model ESEM-EDAX XL-30, Philips (Netherlands) was used for the study of surface morphology. In vitro skin permeation studies were conducted using a Franz-type diffusion cell using skin from the whole dorsal area of a male Wistar rat (200 ± 10 g). Animal experiments were performed with the approval of the institutional animal ethical committee (MSU/PHARM/IAEC/2011/14) in accordance with Laboratory Animal Welfare guidelines.
In vitro skin permeation studies were performed by using skin from the whole dorsal area of a male Wistar rat in a Franz-type diffusion cell. Skin specimens were rehydrated before being mounted in the diffusion cell. The receptor medium (0.05 M phosphate buffer saline solution of pH 7.4) was stirred and kept at 37±1°C throughout the study.
The permeability coefficients (Kp) for the steady-state delivery were obtained by dividing the steady-state flux (Jss) by the solubilities of the compounds in the corresponding vehicle. The receiver medium (0.05 M phosphate buffer saline solution of pH 7.4) was stirred and kept at 37±1°C throughout the study. The compounds were applied as solutions in the phosphate buffer of pH 5.0 or 7.4. At specified time intervals, aliquots (0.5 ml) were withdrawn from the receiver compartment and replaced with fresh buffer. The drug concentrations were analyzed by HPLC.

The conditions of series [3]: cited from earlier work.

The term solubility denotes the dissolved amount per volume that the medium holds. The low end stands for a poorly soluble substance, the high end for a readily soluble substance. The term half-life denotes how long it takes for the measured level to halve.

Values after ≈ are worked out from the molar mass of the structure shown. Read-outs that look alike come from different tables or passages of the source.

With `O=C([O-])Cc1ccc(-c2ccccc2)cc1.[Na+]` [1a], the solubility in series [1] (pH 5.0, room temperature) turned out to be 14.2 ± 0.31 mM; in series [1] (pH 7.4, room temperature) it was 17.1 ± 0.21 mM. Besides, the Papp in series [2] (pH 5) was 0.0333 ×10⁻⁶ cm/s; in series [2] (pH 7.4) it was 0.0667 ×10⁻⁶ cm/s.

For the compound `NCCO.O=C(O)Cc1ccc(-c2ccccc2)cc1` [1b], the solubility in series [1] (pH 5.0, room temperature) worked out at 28.96 ± 0.28 mM; in series [1] (pH 7.4, room temperature) it was 24.1 ± 0.34 mM. Besides, the Papp in series [2] (pH 5) was 0.0222 ×10⁻⁶ cm/s; in series [2] (pH 7.4), 0.178 ×10⁻⁶ cm/s.

`O=C(O)Cc1ccc(-c2ccccc2)cc1` [compound 1, reference compound]: the solubility in series [1] (pH 5.0, room temperature) is 0.57 ± 0.14 mM (≈ 121 µg/mL); in series [1] (pH 7.4, room temperature), 54.08 ± 0.14 mM (≈ 11500 µg/mL). Besides, the Papp in series [2] (pH 5) was 0.208 ×10⁻⁶ cm/s; in series [2] (pH 7.4), 0.00833 ×10⁻⁶ cm/s. Moreover, the half-life in series [3] is recorded as more than 10 h.

(Values after paper PMC4727820 (Scientia Pharmaceutica, 2014).)
